# Data published in the supplement of paper PMC10307832.
# Legend:
# Test in all cases: relative viability (nuclei count vs DMSO), 5 days (fraction); higher = more cells survive
# Ispinesib + Pemetrexed = compound: Cc1ccc(C(=O)N(CCCN)[C@@H](c2nc3cc(Cl)ccc3c(=O)n2Cc2ccccc2)C(C)C)cc1 [Ispinesib] + Nc1nc2[nH]cc(CCc3ccc(C(=O)N[C@@H](CCC(=O)O)C(=O)O)cc3)c2c(=O)[nH]1 [Pemetrexed] (partner 0.2 µM)
# How it was run: (§1)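 Dosing by pin tool came one day after lung cancer cell lines were seeded in 1536-well plates, using either one drug or a fixed anchor-drug dose plus five library-drug doses (not always all listed) in √10 steps. After 5 days, nuclei were counted on 4× images. Relative viability is treated-well nuclei count divided by vehicle-well nuclei count, and values are medians of duplicate plates.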
# Linsitinib + Luminespib = compound: C[C@]1(O)C[C@@H](c2nc(-c3ccc4ccc(-c5ccccc5)nc4c3)c3c(N)nccn32)C1 [Linsitinib] + CCNC(=O)c1noc(-c2cc(C(C)C)c(O)cc2O)c1-c1ccc(CN2CCOCC2)cc1 [Luminespib] (partner 0.01 µM)
# How it was run: as §1
# Linsitinib + Palbociclib = compound: C[C@]1(O)C[C@@H](c2nc(-c3ccc4ccc(-c5ccccc5)nc4c3)c3c(N)nccn32)C1 [Linsitinib] + CC(=O)c1c(C)c2cnc(Nc3ccc(N4CCNCC4)cn3)nc2n(C2CCCC2)c1=O [Palbociclib] (partner 0.5 µM)
# How it was run: as §1
# Linsitinib + Pemetrexed = compound: C[C@]1(O)C[C@@H](c2nc(-c3ccc4ccc(-c5ccccc5)nc4c3)c3c(N)nccn32)C1 [Linsitinib] + Nc1nc2[nH]cc(CCc3ccc(C(=O)N[C@@H](CCC(=O)O)C(=O)O)cc3)c2c(=O)[nH]1 [Pemetrexed] (partner 0.2 µM)
# How it was run: as §1
Cell Line,relative viability (Ispinesib + Pemetrexed; first compound 0.001 µM),relative viability (Ispinesib + Pemetrexed; first compound 0.003162 µM),relative viability (Ispinesib + Pemetrexed; first compound 0.01 µM),relative viability (Ispinesib + Pemetrexed; first compound 0.03162 µM),relative viability (Ispinesib + Pemetrexed; first compound 0.1 µM),relative viability (Linsitinib + Luminespib; first compound 0.01 µM),relative viability (Linsitinib + Luminespib; first compound 0.03162 µM),relative viability (Linsitinib + Luminespib; first compound 0.1 µM),relative viability (Linsitinib + Luminespib; first compound 0.3162 µM),relative viability (Linsitinib + Luminespib; first compound 1 µM),relative viability (Linsitinib + Palbociclib; first compound 0.01 µM),relative viability (Linsitinib + Palbociclib; first compound 0.03162 µM),relative viability (Linsitinib + Palbociclib; first compound 0.1 µM),relative viability (Linsitinib + Palbociclib; first compound 0.3162 µM),relative viability (Linsitinib + Palbociclib; first compound 1 µM),relative viability (Linsitinib + Pemetrexed; first compound 0.01 µM),relative viability (Linsitinib + Pemetrexed; first compound 0.03162 µM),relative viability (Linsitinib + Pemetrexed; first compound 0.1 µM),relative viability (Linsitinib + Pemetrexed; first compound 0.3162 µM),relative viability (Linsitinib + Pemetrexed; first compound 1 µM)
201T,0.308,0.334,0.328,0.32,0.264,1.05,1.13,1.02,1.18,1.1,0.357,0.371,0.374,0.364,0.374,0.319,0.272,0.343,0.287,0.29
A-427,1.04,1.13,1.1,0.48,0.243,0.757,0.954,1.01,–,0.993,0.516,0.568,0.535,–,0.494,0.951,1.03,0.986,–,0.866
ABC-1,–,–,–,–,–,0.544,0.392,0.604,0.519,0.312,0.793,0.537,0.627,0.428,0.425,–,–,–,–,–
BEN,0.826,0.953,0.797,0.471,0.278,0.411,0.503,0.3,–,0.383,0.487,0.422,0.45,0.361,0.468,0.599,0.723,0.704,0.562,0.63
CAL-12T,1.31,1.24,1.41,1.12,0.235,0.469,0.303,0.515,0.303,0.355,0.429,0.388,0.412,0.321,0.424,1.25,0.946,1.23,1.14,1.13
COR-L23,0.197,0.195,0.183,0.158,0.147,0.678,0.48,0.783,0.555,0.583,0.278,0.3,0.249,0.198,0.226,0.202,0.184,0.189,0.184,0.18
COR-L 105,1.09,1.11,1.24,0.794,0.5,0.857,0.688,0.644,0.638,0.581,0.38,0.403,0.437,0.373,0.358,0.963,1.1,1.23,0.771,0.984
ChaGo-K-1,0.248,0.274,0.26,0.256,0.154,0.644,0.535,0.544,0.699,0.728,0.926,0.897,0.974,–,0.978,0.263,0.243,0.271,–,0.261
EKVX,0.41,–,0.416,0.337,0.325,0.844,0.842,0.87,0.688,0.684,–,0.408,0.39,0.288,0.316,–,0.243,0.425,0.352,0.36
EMC-BAC-2,0.455,0.418,0.405,0.352,0.327,1.07,1.2,1.26,1.01,0.95,0.512,0.509,0.493,0.478,0.425,0.397,0.394,0.447,0.448,0.432
EPLC-272H,0.31,0.327,0.193,0.265,0.227,0.23,0.438,–,–,0.725,0.337,0.351,0.327,–,0.335,0.366,0.193,0.325,0.244,0.32
H3255,0.575,0.604,0.515,0.525,0.39,0.87,1,0.869,0.594,0.917,0.309,0.341,0.313,0.321,0.299,0.457,0.566,0.533,0.557,0.521
HARA,0.278,0.203,0.209,0.187,0.171,0.715,0.828,0.945,–,0.173,0.276,0.274,0.223,0.203,0.268,0.258,0.198,0.22,–,0.239
HCC-15,0.241,0.258,0.23,0.221,0.144,0.218,0.296,0.271,–,0.34,0.75,0.703,0.702,0.283,0.569,0.215,0.199,0.209,0.191,0.213
HCC-44,0.682,0.663,0.657,0.496,0.391,1.12,1.01,0.818,0.68,0.912,0.962,0.928,0.879,0.785,0.825,0.624,0.511,0.618,0.555,0.6
HCC-78,0.916,0.931,0.937,0.932,0.617,–,–,–,–,–,0.45,0.539,0.458,0.525,0.501,–,0.897,0.913,0.882,0.925
HCC-366,0.18,0.189,0.176,0.153,0.0222,–,–,–,–,–,0.441,0.394,0.359,0.303,0.328,0.138,0.0729,0.156,0.119,0.127
HCC-827,0.25,0.259,0.274,0.248,0.235,0.733,0.599,0.648,–,0.657,0.408,0.572,0.468,–,0.529,0.149,0.24,0.32,–,0.262

Cell Line,relative viability (Ispinesib + Pemetrexed; first compound 0.001 µM),relative viability (Ispinesib + Pemetrexed; first compound 0.003162 µM),relative viability (Ispinesib + Pemetrexed; first compound 0.01 µM),relative viability (Ispinesib + Pemetrexed; first compound 0.03162 µM),relative viability (Ispinesib + Pemetrexed; first compound 0.1 µM),relative viability (Linsitinib + Luminespib; first compound 0.01 µM),relative viability (Linsitinib + Luminespib; first compound 0.03162 µM),relative viability (Linsitinib + Luminespib; first compound 0.1 µM),relative viability (Linsitinib + Luminespib; first compound 0.3162 µM),relative viability (Linsitinib + Luminespib; first compound 1 µM),relative viability (Linsitinib + Palbociclib; first compound 0.01 µM),relative viability (Linsitinib + Palbociclib; first compound 0.03162 µM),relative viability (Linsitinib + Palbociclib; first compound 0.1 µM),relative viability (Linsitinib + Palbociclib; first compound 0.3162 µM),relative viability (Linsitinib + Palbociclib; first compound 1 µM),relative viability (Linsitinib + Pemetrexed; first compound 0.01 µM),relative viability (Linsitinib + Pemetrexed; first compound 0.03162 µM),relative viability (Linsitinib + Pemetrexed; first compound 0.1 µM),relative viability (Linsitinib + Pemetrexed; first compound 0.3162 µM),relative viability (Linsitinib + Pemetrexed; first compound 1 µM)
HOP-62,0.319,0.327,0.34,0.26,0.117,0.939,0.964,0.923,–,0.694,0.435,0.424,0.49,–,0.45,0.325,0.251,0.311,–,0.281
LC-2-ad,0.288,0.259,0.262,0.23,0.149,1,1.07,0.971,0.873,0.877,0.412,0.392,0.483,0.433,0.423,0.272,0.264,0.256,0.266,0.259
LCLC-97TM1,0.186,0.168,0.173,0.167,0.0653,0.753,0.854,0.622,0.501,0.678,0.223,0.205,0.191,0.195,0.212,0.157,0.159,0.188,0.124,0.157
LCLC-103H,0.475,0.474,0.446,0.449,0.352,1.06,0.965,0.918,0.813,0.838,0.435,0.414,0.427,0.367,0.486,0.441,0.459,0.46,0.341,0.505
LK-2,0.231,0.29,0.294,0.269,0.124,0.173,0.152,0.187,0.192,0.166,0.968,0.58,0.615,0.371,0.554,0.123,0.285,0.148,0.215,0.153
LOU-NH91,0.387,0.428,0.384,0.374,0.323,0.357,0.355,0.299,0.244,0.298,0.513,0.539,0.484,0.529,0.549,0.405,0.345,0.394,0.357,0.392
LU99A,0.188,0.21,0.163,0.163,0.141,0.272,0.25,0.231,0.241,0.216,0.392,0.432,0.434,–,0.36,0.161,0.144,0.193,–,0.198
LXF-289,0.92,0.937,0.973,0.769,0.137,0.759,0.669,0.729,–,0.544,0.565,0.62,0.607,0.493,0.614,0.879,0.88,0.927,0.777,0.861
NCI-H23,0.68,0.785,0.726,0.522,0.207,0.218,0.207,0.211,0.219,0.203,0.519,0.415,0.415,0.326,0.313,0.78,0.474,0.786,0.394,0.419
NCI-H322M,0.665,0.616,0.585,0.525,0.425,0.946,0.444,0.856,0.698,0.658,0.475,0.521,0.492,0.478,0.463,0.612,0.605,0.582,0.59,0.523
NCI-H358,0.176,0.146,0.17,0.169,0.135,0.365,0.367,0.299,0.333,0.194,0.144,0.14,0.121,0.113,0.107,0.187,0.168,0.183,0.141,0.162
NCI-H441,0.245,0.286,0.299,0.2,0.171,0.296,0.327,0.211,0.245,0.281,0.197,0.226,0.199,0.138,0.119,0.246,0.284,0.259,0.234,0.291
NCI-H460,0.0593,0.0626,0.0626,0.0523,0.0519,0.044,0.0373,0.033,0.0397,0.0347,0.192,0.0289,0.184,–,0.142,0.0547,0.0538,0.065,–,0.0715
NCI-H596,0.502,0.51,0.578,0.52,0.304,1.16,0.991,1.2,0.862,0.867,–,–,–,–,–,0.552,0.428,0.497,0.447,0.46
NCI-H727,–,–,–,–,–,0.323,0.207,0.346,0.268,0.288,0.708,0.719,0.63,0.553,0.554,–,–,–,–,–
NCI-H1563,0.849,0.859,0.743,0.771,0.661,0.599,0.607,0.51,0.486,0.525,–,–,–,–,–,0.791,0.883,0.718,1.09,0.752
NCI-H1623,–,–,–,–,–,0.43,0.483,0.5,–,0.307,–,–,–,–,–,–,–,–,–,–
NCI-H1648,0.92,0.723,0.802,0.751,0.305,–,–,–,–,–,0.238,0.304,0.252,0.279,0.212,0.95,0.553,0.658,0.592,0.826
